Among the data in patent US10457662B2, “Substituted amides for treating and preventing cancer” (The Regents of the University of Michigan, priority 2015, dated 2019) are IC50 values, retold here.

Where two headings read alike, the source gives them in different places.

What all share (conditions): Homo sapiens
One assay has as its system MiaPaCa-2. The assay can be described thus: MTT assay, MiaPaCa-2. On the procedure: Cells were treated with QN523 for 1, 4, 8, 24, 48, 72 h and left in culture in fresh media. MTT assay was performed 72 h after initiation of treatment. Data points represent Mean±SD from three independent experiments.
(§1) Experiments conducted during the course of developing embodiments for the present invention involved performance of a phenotypic screen of a library of 20,000 small-molecules representing five million compounds. […] Subsequently, a lead optimization campaign was performed to synthesize a series of close analogs. Initially, the 50 analogs were tested in three pancreatic cancer cell lines using MTT assay (Table 1).
(§2) For in vitro studies, compounds were dissolved in DMSO at 10 mM as stock solutions and stored at −20° C. For in vivo studies, QN523 was dissolved in a vehicle containing 5% DMSO, 35% propylene glycol and 60% saline, and administered at 100 uL through intraperitoneal injections.

Another assay deals with BxPC-3. The assay can be described thus: MTT assay, BxPC-3. Type of assay: cell-based. The protocol: as §1, §2
A general note: Tetrazolium dyes change colour on reduction, which living cells bring about.

The test system of another assay is Panc-1. The assay can be described thus: MTT assay, Panc-1. The format is cell-based. On the procedure: as §1, §2
Where [1] appears, read: MIA PaCa-2, read-out: IC50 Values MiaPaCa-2.
Setting [2] is: BXPC-3, MTT assay, Mean ± SD, three independent experiments, read-out: IC50 Values BxPC-3.
[3] abbreviates: PANC-1, MTT assay, Mean ± SD, three independent experiments, read-out: IC50 Values Panc-1.
Setting [4] is: MIA PaCa-2, read-out: IC50 Values MiaPaCa-2, MTT assay, Mean ± SD, three independent experiments.
The mark [5] stands for this setting: BXPC-3, read-out: IC50 Values BxPC-3.
Where [6] appears, read: PANC-1, read-out: IC50 Values Panc-1.

One may read the IC50 as the point on the concentration scale where inhibition reaches its midpoint. In the case of `Nc1ccn([C@@H]2O[C@H](CO)[C@@H](O)C2(F)F)c(=O)n1` [Gemcitabine, reference compound], the values for the IC50 in the assay on MiaPaCa-2 (setting [1]), with BxPC-3 (setting [2]) and with Panc-1 (setting [3]) were 0.11 ± 0.07 µM, 0.05 ± 0.02 µM and 0.2 ± 0.1 µM, respectively.

As for `COc1cc(NC(=O)c2ncccn2)c2ncccc2c1` [QN113], the figures for the IC50 in the assay with MiaPaCa-2 (setting [1]), with BxPC-3 (setting [2]) and in the assay on Panc-1 (setting [3]) were 1.3 ± 0.35 µM, greater than 10 µM and 9 ± 1.41 µM, respectively.

For the compound `O=C(Nc1cc(OCCN2CCOCC2)cc2cccnc12)c1cnccn1` [QN137, Pyrazine-2-carboxylic acid [6-(2-morpholin-4-yl-ethoxy)-quinolin-8-yl]-amide], the figures for the IC50 in the assay with MiaPaCa-2 (setting [1]), with BxPC-3 (setting [2]) and in the assay with Panc-1 (setting [3]) were 1.7 ± 0.52 µM, 5.17 ± 1.61 µM and 8.17 ± 1.61 µM, respectively.

With `CN(C)CCOc1cc(NC(=O)c2cnccn2)c2ncccc2c1` [QN147, Pyrazine-2-carboxylic acid [6-(2-dimethylamino-ethoxy)-quinolin-8-yl]-amide], the 50% inhibitory concentration (IC50) in the assay on MiaPaCa-2 (setting [1]), in the assay on BxPC-3 (setting [2]) and in the assay on Panc-1 (setting [3]) was greater than 10 µM throughout.

As to `Cc1cnc(C(=O)Nc2cc(OCCN(C)C)cc3cccnc23)cn1` [QN148, 5-Methyl-pyrazine-2-carboxylic acid [6-(2-dimethylamino-ethoxy)-quinolin-8-yl]-amide], the half-inhibitory concentration (IC50) with MiaPaCa-2 (setting [1]) came out at 1.8 ± 0.46 µM; in the assay with BxPC-3 (setting [2]), 9.67 ± 0.58 µM; in the assay with Panc-1 (setting [3]), 4.5 ± 0.5 µM.

Take `CC(C)(C)OC(=O)NCCOc1cc(NC(=O)c2ncccn2)c2ncccc2c1` [QN153, (2-{8-[(Pyrimidine-2-carbonyl)amino]quinolin-6-yloxy}ethyl)carbamic acid tert-butyl ester]: the IC50 in the assay on MiaPaCa-2 (setting [1]), in the assay with BxPC-3 (setting [2]) and with Panc-1 (setting [3]) was greater than 10 µM throughout.

For the compound `NCCOc1cc(NC(=O)c2cnccn2)c2ncccc2c1` [QN154, Pyrazine-2-carboxylic acid [6-(2-aminoethoxy)quinolin-8-yl]amide], the 50% inhibitory concentration (IC50) in the assay with MiaPaCa-2 (setting [1]), in the assay with BxPC-3 (setting [2]) and in the assay on Panc-1 (setting [3]) was greater than 10 µM in each case.

`Cc1cnc(C(=O)Nc2cc(OCCN)cc3cccnc23)cn1` [QN156, 5-Methylpyrazine-2-carboxylic acid [6-(2-aminoethoxy)quinolin-8-yl]amide]: the half-maximal inhibitory concentration (IC50) with MiaPaCa-2 (setting [1]), with BxPC-3 (setting [2]) and in the assay on Panc-1 (setting [3]) was greater than 10 µM each time.

Turning to `CC(C)(C)OC(=O)N1CCC(CCOc2cc(NC(=O)c3cnccn3)c3ncccc3c2)CC1` [QN159, 4-(2-{8-[(Pyrazine-2-carbonyl)amino]quinolin-6-yloxy}ethyl)piperidine-1-carboxylic acid tert-butyl ester], the IC50 with MiaPaCa-2 (setting [1]) turned out to be 3.67 ± 1.15 µM; in the assay on BxPC-3 (setting [2]) it was 3.33 ± 0.58 µM; in the assay on Panc-1 (setting [3]), 9.5 ± 0.5 µM.

Regarding `Cc1cnc(C(=O)Nc2cc(OCCC3CCN(C(=O)OC(C)(C)C)CC3)cc3cccnc23)cn1` [QN160], the concentration for half-maximal inhibition (IC50) is 9 ± 1.73 µM with MiaPaCa-2 (setting [1]), 9.33 ± 1.15 µM in the assay with BxPC-3 (setting [2]) and 9.67 ± 0.58 µM with Panc-1 (setting [3]).

In the case of `CC(C)(C)OC(=O)N1CCC(CCOc2cc(NC(=O)c3ncccn3)c3ncccc3c2)CC1` [QN161, 4-(2-{8-[(Pyrimidine-2-carbonyl)amino]quinolin-6-yloxy}ethyl)piperidine-1-carboxylic acid tert-butyl ester], the IC50 with MiaPaCa-2 (setting [1]), in the assay with BxPC-3 (setting [2]) and in the assay with Panc-1 (setting [3]) was greater than 10 µM in each case.

With `NCCOc1cc(NC(=O)c2ncccn2)c2ncccc2c1` [QN162, Pyrimidine-2-carboxylic acid [6-(2-aminoethoxy)quinolin-8-yl]amide], the IC50 in the assay on MiaPaCa-2 (setting [1]), in the assay with BxPC-3 (setting [2]) and with Panc-1 (setting [3]) was greater than 10 µM each time.

Take `O=C(Nc1cc(OCCC2CCNCC2)cc2cccnc12)c1cnccn1` [QN163, Pyrazine-2-carboxylic acid [6-(2-piperidin-4-yl-ethoxy)quinolin-8-yl]amide]: the IC50 with MiaPaCa-2 (setting [1]), in the assay with BxPC-3 (setting [2]) and with Panc-1 (setting [3]) was greater than 10 µM throughout.

Turning to `Cc1cnc(C(=O)Nc2cc(OCCC3CCNCC3)cc3cccnc23)cn1` [QN164, 5-Methylpyrazine-2-carboxylic acid [6-(2-piperidin-4-yl-ethoxy)quinolin-8-yl]amide], the IC50 in the assay with MiaPaCa-2 (setting [1]) was 6.17 ± 1.04 µM; with BxPC-3 (setting [2]) it was 8.33 ± 1.53 µM; with Panc-1 (setting [3]), greater than 10 µM.

For the compound `O=C(Nc1cc(OCCC2CCNCC2)cc2cccnc12)c1ncccn1` [QN165, Pyrimidine-2-carboxylic acid [6-(2-piperidin-4-yl-ethoxy)quinolin-8-yl]amide], the IC50 in the assay with MiaPaCa-2 (setting [1]), with BxPC-3 (setting [2]) and with Panc-1 (setting [3]) was greater than 10 µM each time.

For the compound `Cc1cnc(C(=O)Nc2ccc3ncccc3c2)cn1` [QN520, 5-Methylpyrazine-2-carboxylic acid quinolin-6-ylamide], the IC50 with MiaPaCa-2 (setting [1]), in the assay with BxPC-3 (setting [2]) and in the assay with Panc-1 (setting [3]) was greater than 10 µM throughout.

As to `Cc1cnc(C(=O)Nc2cccc3ncccc23)cn1` [QN521, 5-Methylpyrazine-2-carboxylic acid quinolin-5-ylamide], the half-maximal inhibitory concentration (IC50) in the assay with MiaPaCa-2 (setting [1]), with BxPC-3 (setting [2]) and in the assay with Panc-1 (setting [3]) was greater than 10 µM throughout.

`Cc1ccc(C(=O)Nc2cccc3cccnc23)cn1` [QN522, 6-Methyl-N-quinolin-8-yl-nicotinamide]: the half-inhibitory concentration (IC50) in the assay with MiaPaCa-2 (setting [4]), with BxPC-3 (setting [5]) and in the assay on Panc-1 (setting [6]) was greater than 10 µM each time.

For `O=C(Nc1cccc2cccnc12)c1ccc(Br)nc1` [QN524, 6-Bromo-N-quinolin-8-yl-nicotinamide], the IC50 in the assay on MiaPaCa-2 (setting [4]), with BxPC-3 (setting [5]) and in the assay with Panc-1 (setting [6]) was greater than 10 µM in each case.

Consider `O=C(Nc1cccc2cccnc12)c1ccc(Br)cn1` [QN529, 5-Bromopyridine-2-carboxylic acid quinolin-8-ylamide], for which the concentration for half-maximal inhibition (IC50) with MiaPaCa-2 (setting [4]) is 1.83 ± 0.72 µM; in the assay with BxPC-3 (setting [5]) it was greater than 10 µM; with Panc-1 (setting [6]), 4 ± 0.8 µM.

With `O=C(Nc1cccc2cccnc12)c1cccc(Br)n1` [QN530, 6-Bromopyridine-2-carboxylic acid quinolin-8-ylamide], the IC50 with MiaPaCa-2 (setting [4]), in the assay on BxPC-3 (setting [5]) and in the assay on Panc-1 (setting [6]) was greater than 10 µM each time.

With `O=C(Nc1cccc2cccnc12)c1ccc(F)nc1` [QN532, 6-Fluoro-N-quinolin-8-yl-nicotinamide], the IC50 in the assay on MiaPaCa-2 (setting [4]), in the assay on BxPC-3 (setting [5]) and in the assay on Panc-1 (setting [6]) was greater than 10 µM each time.

With `O=C(Nc1cccc2cccnc12)c1cccnn1` [QN566, Pyridazine-3-carboxylic acid quinolin-8-ylamide], the IC50 with MiaPaCa-2 (setting [4]) is 8.5 ± 1.03 µM; with BxPC-3 (setting [5]), greater than 10 µM; with Panc-1 (setting [6]), greater than 10 µM.

As for `Cc1cnc(C(=O)Nc2ccc(Br)c3cccnc23)cn1` [QN571, 5-Methylpyrazine-2-carboxylic acid (5-bromoquinolin-8-yl)amide], the IC50 in the assay on MiaPaCa-2 (setting [1]) is 2.23 ± 0.31 µM; in the assay with BxPC-3 (setting [2]), greater than 10 µM; with Panc-1 (setting [3]), 6.83 ± 1.73 µM.

For the compound `O=C(Nc1cccc2cccnc12)c1cnc2ccccc2n1` [QN572, Quinoxaline-2-carboxylic acid quinolin-8-ylamide], the concentration for half-maximal inhibition (IC50) with MiaPaCa-2 (setting [4]), with BxPC-3 (setting [5]) and in the assay with Panc-1 (setting [6]) was greater than 10 µM each time.

On to `O=C(Nc1cccc2cccnc12)c1cnc(Cl)cn1` [QN573, 5-Chloropyrazine-2-carboxylic acid quinolin-8-ylamide], for which the 50% inhibitory concentration (IC50) was 7 ± 1.3 µM in the assay on MiaPaCa-2 (setting [4]), greater than 10 µM with BxPC-3 (setting [5]) and 9.3 ± 0.8 µM in the assay on Panc-1 (setting [6]).

Consider `N#C/C(=C\c1cccc(Br)n1)C(=O)Nc1cccc2cccnc12` [QN608], for which the IC50 in the assay with MiaPaCa-2 (setting [1]), in the assay on BxPC-3 (setting [2]) and in the assay with Panc-1 (setting [3]) was greater than 10 µM in each case.

For the compound `N#C/C(=C\c1ccc(O)c(O)c1)C(=O)Nc1cccc2cccnc12` [QN609], the IC50 with MiaPaCa-2 (setting [1]), with BxPC-3 (setting [2]) and with Panc-1 (setting [3]) was greater than 10 µM throughout.

`COc1cc(/C=C(\C#N)C(=O)Nc2cccc3cccnc23)cc(OC)c1OC` [QN610]: the IC50 in the assay with MiaPaCa-2 (setting [1]), with BxPC-3 (setting [2]) and in the assay on Panc-1 (setting [3]) was greater than 10 µM in each case.

For the compound `Cc1cnc(C(=O)Nc2cccc3ccc(C)nc23)cn1` [QN632, 5-Methylpyrazine-2-carboxylic acid (2-methylquinolin-8-yl)amide], the half-inhibitory concentration (IC50) in the assay with MiaPaCa-2 (setting [1]), in the assay on BxPC-3 (setting [2]) and with Panc-1 (setting [3]) was greater than 10 µM each time.

As for `Cc1ccc2cccc(NC(=O)c3cnccn3)c2n1` [QN634, Pyrazine-2-carboxylic acid (2-methylquinolin-8-yl)amide], the half-inhibitory concentration (IC50) in the assay on MiaPaCa-2 (setting [1]), in the assay on BxPC-3 (setting [2]) and with Panc-1 (setting [3]) was greater than 10 µM in each case.

Consider `O=C(Nc1nccc2cccnc12)c1cnccn1` [QN655, Pyrazine-2-carboxylic acid [1,7]naphthyridin-8-ylamide], for which the IC50 in the assay on MiaPaCa-2 (setting [1]) stood at 7.7 ± 1.53 µM; in the assay with BxPC-3 (setting [2]), 7.22 ± 1.02 µM; in the assay on Panc-1 (setting [3]), 6.72 ± 1.02 µM.

Turning to `CN(C)Cc1ccc2cccc(NC(=O)c3cnccn3)c2n1` [QN659, Pyrazine-2-carboxylic acid (2-dimethylaminomethyl-quinolin-8-yl)amide], the half-inhibitory concentration (IC50) with MiaPaCa-2 (setting [1]), with BxPC-3 (setting [2]) and in the assay on Panc-1 (setting [3]) was greater than 10 µM each time.

On to `CC(COc1ccccc1)N(CCCl)Cc1ccccc1` (stereo not shown) [pheoxybenzamine, reference compound], for which the IC50 with MiaPaCa-2 (MIA PaCa-2, read-out: IC50 in MiaPaCa-2, comparison compounds) is greater than 30 µM.
